For the assay, the target named is T1, Chk1 (Homo sapiens, UniProt O14757).
T1 construct: purchased Upstate Biotechnology
T1 sequence (O14757 1-476): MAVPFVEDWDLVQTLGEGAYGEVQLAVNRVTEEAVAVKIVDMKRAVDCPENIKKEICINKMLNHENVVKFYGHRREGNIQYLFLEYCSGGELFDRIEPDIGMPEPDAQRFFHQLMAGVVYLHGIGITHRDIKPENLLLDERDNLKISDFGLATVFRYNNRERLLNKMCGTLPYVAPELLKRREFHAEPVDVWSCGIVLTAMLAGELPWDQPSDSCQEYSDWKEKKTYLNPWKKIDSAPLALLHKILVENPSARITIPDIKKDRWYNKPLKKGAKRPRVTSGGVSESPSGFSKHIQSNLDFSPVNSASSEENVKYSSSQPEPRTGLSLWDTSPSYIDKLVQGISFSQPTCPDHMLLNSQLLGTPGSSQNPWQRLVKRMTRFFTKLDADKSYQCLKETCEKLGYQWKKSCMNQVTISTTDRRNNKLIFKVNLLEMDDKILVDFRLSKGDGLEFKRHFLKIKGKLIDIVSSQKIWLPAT
The assay can be described thus: Chk1 kinase assay: incorporation of γ-33P ATP into immobilized myelin basic protein. The format is biochemical. As to conditions: Table 11, Chk1 only; class symbols A-D; read-out: Chk1 IC50. The method, boiled down:
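Read-out is scintillation counting of 33P incorporated into plate-bound myelin basic protein. Chk1 runs at 10 nM enzyme with 10 μM ATP, Chk2 at 20 nM with 30 μM ATP, each for 1 hour at room temperature. Duplicate points; IC50 taken as 50% activity reduction, Ki computed from IC50.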

A word on the IC50: it is the point on the concentration scale where inhibition reaches its midpoint.

The structures appear in SMILES notation.

With `COc1cccc(OC)c1CNC(=O)c1cccc(-c2cnc(N)c(C(=O)N[C@H]3CCCNC3)n2)c1` [Example 1026, 3-amino-6-{3-[({[2,6-bis(methyloxy)phenyl]methyl}amino)carbonyl]phenyl}-N-[(3S)-piperidin-3-yl]pyrazine-2-carboxamide], the half-maximal inhibitory concentration (IC50) lay within 0.05 to 1 µM. With `Nc1ncc(-c2cccc(C(=O)NCc3ccc(F)c(Br)c3)c2)nc1C(=O)N[C@H]1CCCNC1` [Example 1027, 3-amino-6-[3-({[(3-bromo-4-fluorophenyl)methyl]amino}carbonyl)phenyl]-N-[(3S)-piperidin-3-yl]pyrazine-2-carboxamide] the figure was below 0.05 µM; with `Nc1ncc(-c2cccc(C(=O)NCc3cc(F)c(F)c(F)c3)c2)nc1C(=O)N[C@H]1CCCNC1` [Example 1028, 3-amino-N-[(3S)-piperidin-3-yl]-6-[3-({[(3,4,5-trifluorophenyl)methyl]amino}carbonyl)phenyl]pyrazine-2-carboxamide], below 0.05 µM. With `Cc1cc(CNC(=O)c2cccc(-c3cnc(N)c(C(=O)N[C@H]4CCCNC4)n3)c2)ccc1F` [Example 1029, 3-amino-6-[3-({[(4-fluoro-3-methylphenyl)methyl]amino}carbonyl)phenyl]-N-[(3S)-piperidin-3-yl]pyrazine-2-carboxamide], the IC50 is below 0.05 µM. As to `Nc1ncc(-c2cccc(C(=O)NCc3cc(F)cc(F)c3F)c2)nc1C(=O)N[C@H]1CCCNC1` [Example 1030, 3-amino-N-[(3S)-piperidin-3-yl]-6-[3-({[(2,3,5-trifluorophenyl)methyl]amino}carbonyl)phenyl]pyrazine-2-carboxamide], the concentration for half-maximal inhibition (IC50) is below 0.05 µM. With `Cc1ccc(F)cc1CNC(=O)c1cccc(-c2cnc(N)c(C(=O)N[C@H]3CCCNC3)n2)c1` [Example 1031, 3-amino-6-[3-({[(5-fluoro-2-methylphenyl)methyl]amino}carbonyl)phenyl]-N-[(3S)-piperidin-3-yl]pyrazine-2-carboxamide] the figure was below 0.05 µM. The same measure for `Nc1ncc(-c2cccc(C(=O)NCc3cc(F)cc(Br)c3)c2)nc1C(=O)N[C@H]1CCCNC1` [Example 1032, 3-amino-6-[3-({[(3-bromo-5-fluorophenyl)methyl]amino}carbonyl)phenyl]-N-[(3S)-piperidin-3-yl]pyrazine-2-carboxamide]: below 0.05 µM; for `Nc1ncc(-c2cccc(C(=O)NCc3ccc(-n4cccn4)cc3)c2)nc1C(=O)N[C@H]1CCCNC1` [Example 1033, 3-amino-N-[(3S)-piperidin-3-yl]-6-{3-[({[4-(1H-pyrazol-1-yl)phenyl]methyl}amino)carbonyl]phenyl}pyrazine-2-carboxamide]: below 0.05 µM; for `Nc1ncc(-c2cccc(C(=O)NCc3cccc(-c4ccccc4)c3)c2)nc1C(=O)N[C@H]1CCCNC1` [Example 1034, 3-amino-6-(3-{[(biphenyl-3-ylmethyl)amino]carbonyl}phenyl)-N-[(3S)-piperidin-3-yl]pyrazine-2-carboxamide]: below 0.05 µM. For `Cc1ccccc1CNC(=O)c1cccc(-c2cnc(N)c(C(=O)N[C@H]3CCCNC3)n2)c1` [Example 1035, 3-amino-6-[3-({[(2-methylphenyl)methyl]amino}carbonyl)phenyl]-N-[(3S)-piperidin-3-yl]pyrazine-2-carboxamide], the half-inhibitory concentration (IC50) is below 0.05 µM. Regarding `Cc1ccc(C)c(CNC(=O)c2cccc(-c3cnc(N)c(C(=O)N[C@H]4CCCNC4)n3)c2)c1` [Example 1036, 3-amino-6-[3-({[(2,5-dimethylphenyl)methyl]amino}carbonyl)phenyl]-N-[(3S)-piperidin-3-yl]pyrazine-2-carboxamide], the IC50 is below 0.05 µM. With `Cc1cc(C)cc(CNC(=O)c2cccc(-c3cnc(N)c(C(=O)N[C@H]4CCCNC4)n3)c2)c1` [Example 1037, 3-amino-6-[3-({[(3,5-dimethylphenyl)methyl]amino}carbonyl)phenyl]-N-[(3S)-piperidin-3-yl]pyrazine-2-carboxamide], the concentration for half-maximal inhibition (IC50) was below 0.05 µM. With `Cc1ccc(CNC(=O)c2cccc(-c3cnc(N)c(C(=O)N[C@H]4CCCNC4)n3)c2)c(C)c1` [Example 1038, 3-amino-6-[3-({[(2,4-dimethylphenyl)methyl]amino}carbonyl)phenyl]-N-[(3S)-piperidin-3-yl]pyrazine-2-carboxamide] the figure was below 0.05 µM.

Take `COc1cccc(CNC(=O)c2cccc(-c3cnc(N)c(C(=O)N[C@H]4CCCNC4)n3)c2)c1` [Example 1039, 3-amino-6-[3-({[(3-methoxyphenyl)methyl]amino}carbonyl)phenyl]-N-[(3S)-piperidin-3-yl]pyrazine-2-carboxamide]: the half-inhibitory concentration (IC50) is below 0.05 µM. Consider `Nc1ncc(-c2cccc(C(=O)NCc3ccccc3)c2)nc1C(=O)N[C@H]1CCCNC1` [Example 1040, 3-amino-6-{3-[({[phenyl]methyl}amino)carbonyl]phenyl}-N-[(3S)-piperidin-3-yl]pyrazine-2-carboxamide], for which the 50% inhibitory concentration (IC50) was below 0.05 µM. With `COc1cc(CNC(=O)c2cccc(-c3cnc(N)c(C(=O)N[C@H]4CCCNC4)n3)c2)cc(OC)c1` [Example 1041, 3-amino-6-{3-[({[3,5-bis(methyloxy)phenyl]methyl}amino)carbonyl]phenyl}-N-[(3S)-piperidin-3-yl]pyrazine-2-carboxamide] the figure was below 0.05 µM. With `COc1ccc(CNC(=O)c2cccc(-c3cnc(N)c(C(=O)N[C@H]4CCCNC4)n3)c2)cc1OC` [Example 1042, 3-amino-6-{3-[({[3,4-bis(methyloxy)phenyl]methyl}amino)carbonyl]phenyl}-N-[(3S)-piperidin-3-yl]pyrazine-2-carboxamide] the figure was below 0.05 µM.

(Values after patent publication US7704995B2 (Exelixis, Inc., priority 2003, dated 2010).)
